Experimental findings from US10183040B2, “Method for regulation of lipid metabolism” (PROFEAT BIOTECHNOLOGY CO., LTD., priority 2014, dated 2019) are described below.

The nature of the experiment: Serum triacylglycerol, cholesterol, HDL and LDL assays of diabetes mice, Table 4 groups (FIG. 4A-4D). Format: in vivo, db/db mice (C57BLKS/J-leprdb/leprdb). The conditions noted are these: 4 mg/kg/day, versus phosphate solution control. As to the method:
FIG. 4A is a bar chart of the triacylglycerol assay of diabetes mice in accordance with the present invention, wherein the mice of control group are administered with phosphate buffer; the mice of treatment group are administered with 4 mg/kg/day composition A1; the mice of B01 group are administered with commercial 4 mg/kg/day ferrous glycine, and the mice of C01 group are administered with 4 mg/kg/day ferrous sulfate.
FIG. 4B is a bar chart of the cholesterol assay of diabetes mice in accordance with the present invention, wherein the mice of control group are administered with phosphate buffer; the mice of treatment group are administered with 4 mg/kg/day composition A1; the mice of B01 group are administered with commercial 4 mg/kg/day ferrous glycine, and the mice of C01 group are administered with 4 mg/kg/day ferrous sulfate. […]
The mice were daily and orally administered with the composition A1 at dosage of […] for 12 weeks. The body weights of the mice were measured every 3 days, and the serum biochemical values of the mice were measured every 4 weeks after orally administering with the composition A1. Triacylglycerol and cholesterol of the serum biochemical values were determined using a Biochem-Immuno Fully Autoanalyzer (Brea, Calif., USA) or a Chemistry Analyzer (Hitachi, Ltd., Japan). […]

On to `NCC(=O)[O-].NCC(=O)[O-].[Fe+2]` [commercial ferrous glycine, ferrous glycine], for which the triacylglycerol entry was “effectively reduced”.

On to “ferrous sulfate [commercial ferrous sulfate]”, for which the triacylglycerol entry is reported as “effectively reduced”.
